Data reported in patent US9844549B2, “2-aminothiazole derivative or salt thereof” (ASTELLAS PHARMA INC., priority 2014, dated 2017).
Structures can show the parent of a compound that is named as a salt.

Key:
anesthetized rats = assay: Effect on pelvic nerve stimulation-induced elevation of intravesical pressure in anesthetized rats; type: in vivo; settings: Rattus norvegicus; 3 mg/kg intravenous; maximum effect within one hour; AUC, pre-treatment = 100%; SD female rats; read-out: Increase rate of intravesical pressure (% of pre)
Procedure: Test Example 3: Effect on Pelvic Nerve Stimulation-Induced Elevation of Intravesical Pressure in Anesthetized Rats
The effect of the Example compounds of the present invention in the pelvic nerve electrical stimulation-induced elevation of intravesical pressure using rats as an action of nerve stimulation-dependent bladder contraction in vivo was measured by the following method. That is, SD female rats (Japan SLC, Inc.) were used and its lower abdomen was dissected at the midline under pentobarbital anesthesia (50 mg/kg ip). After ligating and cutting the ureter on both sides, a cannula (PE-50) for measuring the intravesical pressure was inserted into the bladder from the external urethral opening and fixed by a clip. After injecting about 200 μL of saline through the cannula that had been inserted into the bladder, the other side was connected to a pressure transducer to measure the intravesical pressure. Under a stereoscopic microscope observation, the pelvic nerve in the vicinity of the bladder was peeled and an electrode for nerve stimulation (unique Medical) was placed. The abdominal cavity was filled with mineral oil (MP BIOMEDICALS). After placing in a post-operative stabilization period, the pelvic nerve was subjected to electrical stimulation (stimulation voltage: 10 V, stimulation frequency: 8 Hz, pulse width: 0.3 msec, and stimulation time: 10 seconds) to elicit the elevation of intravesical pressure, using an electrical stimulator (Nihon Kohden). By repeating the electrical stimulation at an interval of 2 minutes while adjusting the voltage, the voltage was adjusted to elicit about 50% to 70% elevation of intravesical pressure elicited at 10 V. Thereafter, by repeating the electrical stimulation at an interval of 10 minutes, the increase in the intravesical pressure by electrical stimulation was stabilized three times or more, and the test substance (an administration amount of 3 mg/kg) was then administered from the catheter detained in the vein at a volume of 1 mL/kg, thus measuring an effect of the elevation of the intravesical pressure of the test substance for 1 hour. The test substance was dissolved in water supplemented with 10% DMSO and 10% Cremophor.
The response was applied to a personal computer through a PowerLab (registered trademark) and analyzed by LabChart (registered trademark). The AUC of each elevation of the intravesical pressure was calculated, the intravesical pressure elevation rate (% of pre) after the treatment with the test substance was calculated by taking an average value of the values measured three times before the treatment with the test substance as 100%, and the maximum effect during a period within one hour after administration of the compound was considered as the effect of the test substance.

rat isolated bladder = assay: Effect on electrical field stimulation-induced contraction in rat isolated bladder; settings: AUC of contraction, value before treatment = 100%, SD female rat bladder, read-out: Enhancement rate of extracted bladder contractions (% of pre)
Procedure: Test Example 2: Effect on Electrical Field Stimulation-Induced Contraction in Rat Isolated Bladder
As an effect on the nerve stimulation-dependent bladder contraction in in vitro, the effect of the Example compounds of the present invention in the electrical field stimulation-induced contraction of the rat isolated bladder was measured by the following method. That is, a bladder specimen having a width of about 2 mm and a length of about 10 mm in the longitudinal direction from the bladder isolated from a Sprague-Dawley (SD) female rat (Japan SLC, Inc.) was prepared. The prepared bladder specimen was suspended in an organ bath filled with 10 mL of a Krebs-Henseleite solution. The Krebs-Henseleite solution was aerated at 95% 02 and 5% CO2, and kept at 37° C. After carrying out stabilization at an initial tension of 1 g, the contraction was caused twice with 60 mM KCl. After stabilization of the specimen with a Krebs-Henseleite solution, the contraction was caused by carrying out electrical field stimulation at 20 V with an electrical stimulation device (Nihon Kohden) (a stimulation frequency of 8 Hz, a pulse width of 0.3 msec, and a stimulation time of 10 seconds). By repeating the transmural electrical stimulation at an interval of 2 minutes, a voltage was adjusted to obtain a contraction height of approximately 50% of the contractile response at 20 V. After the contraction by electrical field stimulation had been stabilized, 10 μL of the test substances dissolved in 100% DMSO in advance (final concentrations of 3 μM, 10 μM, and 30 μM) was added thereto. The test substances were cumulatively administered at the following concentrations after the low-concentration contractile response had been stabilized. The response was taken into a personal computer through a PowerLab (registered trademark) (AD Instruments, Inc.), and analyzed by LabChart (registered trademark) (AD Instruments, Inc.). When the area under the response (area under curve, AUC) in each contraction response was calculated and the value before treatment with the test substance was taken as 100%, the enhancement rate (% of pre) of the isolated bladder contractions after treatment with the test substance was calculated.

| SMILES | response vs control in vivo at 3 mg/kg (anesthetized rats) [%] | activity at 10 µM (rat isolated bladder) [%] |
| --- | --- | --- |
| CC1CC[C@@H](C)N1Cc1sc(Nc2ncnc(N3CCN(CCC(=O)O)CC3)c2F)nc1-c1cc(F)cc(C(F)(F)F)c1 (stereo in doubt) [Example 8, sodium 3-(4-{6-[(5-{[(2R,5R)-2,5-dimethylpyrrolidin-1-yl]methyl}-4-[3-fluoro-5-(trifluoromethyl)phenyl]-1,3-thiazol-2-yl)amino]-5-fluoropyrimidin-4-yl}piperazin-1-yl)propanoate] | 178 | 193 |
| COC[C@@H]1CN(c2ncnc(Nc3nc(-c4ccc(Cl)c(C(F)(F)F)c4)c(CN4CCC[C@H]4C)s3)c2F)CCN1CCC(=O)O [Example 1, 3-[(2S)-4-{6-[(4-[4-chloro-3-(trifluoromethyl)phenyl]-5-{[(2R)-2-methylpyrrolidin-1-yl]methyl}-1,3-thiazol-2-yl)amino]-5-fluoropyrimidin-4-yl}-2-(methoxymethyl)piperazin-1-yl]propanoic acid trihydrochloride] | 197 | 120 |
| Cc1nc(Nc2nc(-c3cc(F)cc(C(F)(F)F)c3)c(CN3CCC[C@H]3C)s2)cc(N2CCN(CCC(=O)O)CC2)n1 [Example 3, 3-(4-{6-[(4-[3-fluoro-5-(trifluoromethyl)phenyl]-5-{[(2R)-2-methylpyrrolidin-1-yl]methyl}-1,3-thiazol-2-yl)amino]-2-methylpyrimidin-4-yl}piperazin-1-yl)propanoic acid trihydrochloride] | 146 | 136 |
| Cc1nc(Nc2nc(-c3cc(F)cc(C(F)(F)F)c3)c(CN3[C@H](C)CC[C@H]3C)s2)c(F)c(N2CCN(CCC(=O)O)CC2)n1 [Example 4, sodium 3-(4-{6-[(5-{[(2R,5R)-2,5-dimethylpyrrolidin-1-yl]methyl}-4-[3-fluoro-5-(trifluoromethyl)phenyl]-1,3-thiazol-2-yl)amino]-5-fluoro-2-methylpyrimidin-4-yl}piperazin-1-yl)propanoate] | 178 | 127 |
| C[C@@H]1CCCN1Cc1sc(Nc2ncnc(N3CCN(CCC(=O)O)CC3)c2F)nc1-c1ccc(Cl)c(C(F)(F)F)c1 [Example 9, 3-(4-{6-[(4-[4-chloro-3-(trifluoromethyl)phenyl]-5-{[(2R)-2-methylpyrrolidin-1-yl]methyl}-1,3-thiazol-2-yl)amino]-5-fluoropyrimidin-4-yl}piperazin-1-yl)propanoic acid trihydrochloride] | 200 | 187 |
| COC[C@@H]1CN(c2ncnc(Nc3nc(-c4cc(F)cc(C(F)(F)F)c4)c(CN4CCC[C@H]4C)s3)c2F)CCN1CCC(=O)O [Example 10, 3-[(2S)-4-{5-fluoro-6-[(4-[3-fluoro-5-(trifluoromethyl)phenyl]-5-{[(2R)-2-methylpyrrolidin-1-yl]methyl}-1,3-thiazol-2-yl)amino]pyrimidin-4-yl}-2-(methoxymethyl)piperazin-1-yl]propanoic acid trihydrochloride] | 169 | 271 |
| C[C@@H]1CCCN1Cc1sc(Nc2ncnc(N3CCN(CCC(=O)O)CC3)c2F)nc1-c1cc(Cl)cc(C(F)(F)F)c1 [Example 11, 3-(4-{6-[(4-[3-chloro-5-(trifluoromethyl)phenyl]-5-{[(2R)-2-methylpyrrolidin-1-yl]methyl}-1,3-thiazol-2-yl)amino]-5-fluoropyrimidin-4-yl}piperazin-1-yl)propanoic acid trihydrochloride] | 181 | 219 |
| C[C@@H]1CCCN1Cc1sc(Nc2ncnc(N3CCC(OCC(=O)O)CC3)c2F)nc1-c1cc(F)cc(C(F)(F)F)c1 [Example 12, [(1-{5-fluoro-6-[(4-[3-fluoro-5-(trifluoromethyl)phenyl]-5-{[(2R)-2-methylpyrrolidin-1-yl]methyl}-1,3-thiazol-2-yl)amino]pyrimidin-4-yl}piperidin-4-yl)oxy]acetic acid dihydrochloride] | 152 | 166 |
| CC[C@@H]1CCCN1Cc1sc(Nc2ncnc(N3CCC(OCC(=O)O)CC3)c2F)nc1-c1cc(Cl)cc(C(F)(F)F)c1 [Example 13, [(1-{6-[(4-[3-chloro-5-(trifluoromethyl)phenyl]-5-{[(2R)-2-ethylpyrrolidin-1-yl]methyl}-1,3-thiazol-2-yl)amino]-5-fluoropyrimidin-4-yl}piperidin-4-yl)oxy]acetic acid dihydrochloride] | 186 | 127 |
| C[C@@H]1CCCN1Cc1sc(Nc2cc(N3CCN(CCC(=O)O)CC3)ncn2)nc1-c1cc(F)cc(C(F)(F)F)c1 [Example 14] | 121 | 169 |
| C[C@@H]1CCCN1Cc1sc(Nc2ncnc(N3CCN(CCC(=O)O)CC3)c2F)nc1-c1cc(F)cc(C(F)(F)F)c1 [Example 17] | 144 | 199 |
| Cc1nc(Nc2nc(-c3cc(F)cc(C(F)(F)F)c3)c(CN3CCC[C@H]3C)s2)c(F)c(N2CCN(CCC(=O)O)CC2)n1 [Example 18] | 153 | 199 |
| C[C@@H]1CCCN1Cc1sc(Nc2cc(N3CCN(CCC(=O)O)CC3)ccn2)nc1-c1cc(F)cc(C(F)(F)F)c1 [Example 19] | 125 | 161 |
| COc1c(Nc2nc(-c3cc(F)cc(C(F)(F)F)c3)c(CN3CCC[C@H]3C)s2)ncnc1N1CCN(CCC(=O)O)CC1 [Example 91] | 144 | 124 |
